Results from patent US8802661B2, “C-28 amides of modified C-3 betulinic acid derivatives as HIV maturation inhibitors” (priority 2010, dated 2014).

What follows are molecules tested on recombinant NL4-3 virus (Renilla luciferase in nef, Gag P373S) (assay: HIV Cell Culture Assay (luciferase reporter virus in MT-2 cells)). Settings: NL43.
Assay type: cell-based
Description: MT-2 cells and 293T cells were obtained from the NIH AIDS Research and Reference Reagent Program. MT-2 cells were propagated in RPMI 1640 media supplemented with 10% heat inactivated fetal bovine serum, […]. The 293T cells were propagated in DMEM media supplemented with 10% heat inactivated fetal bovine serum (FBS), 100 units/ml penicillin G and 100 μg/ml streptomycin. The proviral DNA clone of NL4-3 was obtained from the NIH AIDS Research and Reference Reagent Program. A recombinant NL4-3 virus, in which a section of the nef gene from NL4-3 was replaced with the Renilla luciferase gene, was used as a reference virus. In addition, residue Gag P373 was converted to P373S. Briefly, the recombinant virus was prepared by transfection of the altered proviral clone of NL4-3. Transfections were performed in 293T cells using LipofectAMINE PLUS from Invitrogen (Carlsbad, Calif.), according to manufacturer's instruction. The virus was titered in MT-2 cells using luciferase enzyme activity as a marker. Luciferase was quantitated using the Dual Luciferase kit from Promega (Madison, Wis.), with modifications to the manufacturer's protocol. The diluted Passive Lysis solution was pre-mixed with the re-suspended Luciferase Assay Reagent and the re-suspended Stop & Glo Substrate (2:1:1 ratio). Fifty (50) μL of the mixture was added to each aspirated well on assay plates and luciferase activity was measured immediately on a Wallac TriLux (Perkin-Elmer). Antiviral activities of inhibitors toward the recombinant virus were quantified by measuring luciferase activity in cells infected for 4-5 days with NLRluc recombinants in the presence serial dilutions of the inhibitor. Table 1 is the key for the data in Table 2.

| Compound | EC50 [nM] |
| --- | --- |
| C=C(C)[C@@H]1CC[C@]2(C(=O)N3CCCC(C(=O)N(CC)CC)C3)CC[C@]3(C)[C@H](CC[C@@H]4[C@@]5(C)CC=C(c6ccc(C(=O)O)cc6)C(C)(C)[C@@H]5CC[C@]43C)[C@@H]12 (stereo partly drawn) [Example 11, 4-((1R,3aS,5aR,5bR,7aR,11aS,11bR,13aR,13bR)-3a-(3-(diethylcarbamoyl)piperidine-1-carbonyl)-5a,5b,8,8,11a-pentamethyl-1-(prop-1-en-2-yl)-2,3,3a,4,5,5a,5b,6,7,7a,8,11,11a,11b,12,13,13a,13b-octadecahydro-1H-cyclopenta[a]chrysen-9-yl)benzoic acid] | 61 |
| C=C(C)[C@@H]1CC[C@]2(C(=O)NCCN(C(C)C)C(C)C)CC[C@]3(C)[C@H](CC[C@@H]4[C@@]5(C)CC=C(c6ccc(C(=O)O)cc6)C(C)(C)[C@@H]5CC[C@]43C)[C@@H]12 [Example 67, 4-((1R,3aS,5aR,5bR,7aR,11aS,11bR,13aR,13bR)-3a-(2-(diisopropylamino)ethylcarbamoyl)-5a,5b,8,8,11a-pentamethyl-1-(prop-1-en-2-yl)-2,3,3a,4,5,5a,5b,6,7,7a,8,11,11a,11b,12,13,13a,13b-octadecahydro-1H-cyclopenta[a]chrysen-9-yl)benzoic acid] | 3.8 |

Same assay, conditions: NL43, read-out: EC50 Group

| Compound | EC50 [nM] |
| --- | --- |
| C=C(C)[C@@H]1CC[C@]2(C(=O)NCCC(=O)O)CC[C@]3(C)[C@H](CC[C@@H]4[C@@]5(C)CC=C(c6ccc(C(=O)O)cc6)C(C)(C)[C@@H]5CC[C@]43C)[C@@H]12 [Example 25, 4-((1R,3aS,5aR,5bR,7aR,11aS,11bR,13aR,13bR)-3a-(2-carboxyethylcarbamoyl)-5a,5b,8,8,11a-pentamethyl-1-(prop-1-en-2-yl)-2,3,3a,4,5,5a,5b,6,7,7a,8,11,11a,11b,12,13,13a,13b-octadecahydro-1H-cyclopenta[a]chrysen-9-yl)benzoic acid] | < 100 |
| C=C(C)[C@@H]1CC[C@]2(C(=O)NCCN(CCC(=O)O)C(C)C)CC[C@]3(C)[C@H](CC[C@@H]4[C@@]5(C)CC=C(c6ccc(C(=O)O)cc6)C(C)(C)[C@@H]5CC[C@]43C)[C@@H]12 [Example 96, 4-((1R,3aS,5aR,5bR,7aR,11aS,11bR,13aR,13bR)-3a-(2-((2-carboxyethyl)(isopropyl)amino)ethylcarbamoyl)-5a,5b,8,8,11a-pentamethyl-1-(prop-1-en-2-yl)-2,3,3a,4,5,5a,5b,6,7,7a,8,11,11a,11b,12,13,13a,13b-octadecahydro-1H-cyclopenta[a]chrysen-9-yl)benzoic acid] | < 100 |
| C=C(C)[C@@H]1CC[C@]2(C(=O)NCCN3CCN(C(=O)OC(C)(C)C)CC3)CC[C@]3(C)[C@H](CC[C@@H]4[C@@]5(C)CC=C(c6ccc(C(=O)O)cc6)C(C)(C)[C@@H]5CC[C@]43C)[C@@H]12 [Example 37, 4-((1R,3aS,5aR,5bR,7aR,11aS,11bR,13aR,13bR)-3a-(2-(4-(tert-butoxycarbonyl)piperazin-1-yl)ethylcarbamoyl)-5a,5b,8,8,11a-pentamethyl-1-(prop-1-en-2-yl)-2,3,3a,4,5,5a,5b,6,7,7a,8,11,11a,11b,12,13,13a,13b-octadecahydro-1H-cyclopenta[a]chrysen-9-yl)benzoic acid] | < 100 |
| C=C(C)[C@@H]1CC[C@]2(C(=O)NS(=O)(=O)N(C)C)CC[C@]3(C)[C@H](CC[C@@H]4[C@@]5(C)CC=C(c6ccc(C(=O)O)cc6)C(C)(C)[C@@H]5CC[C@]43C)[C@@H]12 [Example 7, 4-((1R,3aS,5aR,5bR,7aR,11aS,11bR,13aR,13bR)-3a-(N,N-dimethylsulfamoylcarbamoyl)-5a,5b,8,8,11a-pentamethyl-1-(prop-1-en-2-yl)-2,3,3a,4,5,5a,5b,6,7,7a,8,11,11a,11b,12,13,13a,13b-octadecahydro-1H-cyclopenta[a]chrysen-9-yl)benzoic acid] | < 100 |
| C=C(C)[C@@H]1CC[C@]2(C(=O)NCCCN3CCS(=O)(=O)CC3)CC[C@]3(C)[C@H](CC[C@@H]4[C@@]5(C)CC=C(c6ccc(C(=O)O)c(C(=O)O)c6)C(C)(C)[C@@H]5CC[C@]43C)[C@@H]12 [Example 112, 4-((1R,3aS,5aR,5bR,7aR,11aS,11bR,13aR,13bR)-3a-((3-(1,1-dioxido-4-thiomorpholinyl)propyl)carbamoyl)-1-isopropenyl-5a,5b,8,8,11a-pentamethyl-2,3,3a,4,5,5a,5b,6,7,7a,8,11,11a,11b,12,13,13a,13b-octadecahydro-1H-cyclopenta[a]chrysen-9-yl)phthalic acid] | < 100 |
| C=C(C)[C@@H]1CC[C@]2(C(=O)NCc3nc4ccccc4[nH]3)CC[C@]3(C)[C@H](CC[C@@H]4[C@@]5(C)CC=C(c6ccc(C(=O)O)cc6)C(C)(C)[C@@H]5CC[C@]43C)[C@@H]12 [Example 40, 4-((1R,3aS,5aR,5bR,7aR,11aS,11bR,13aR,13bR)-3a-((1H-benzo[d]imidazol-2-yl)methylcarbamoyl)-5a,5b,8,8,11a-pentamethyl-1-(prop-1-en-2-yl)-2,3,3a,4,5,5a,5b,6,7,7a,8,11,11a,11b,12,13,13a,13b-octadecahydro-1H-cyclopenta[a]chrysen-9-yl)benzoic acid] | < 100 |
| C=C(C)[C@@H]1CC[C@]2(C(=O)Nc3ncc(C(=O)O)s3)CC[C@]3(C)[C@H](CC[C@@H]4[C@@]5(C)CC=C(c6ccc(C(=O)O)cc6)C(C)(C)[C@@H]5CC[C@]43C)[C@@H]12 [Example 50, 2-((1R,3aS,5aR,5bR,7aR,11aS,11bR,13aR,13bR)-9-(4-carboxyphenyl)-5a,5b,8,8,11a-pentamethyl-1-(prop-1-en-2-yl)-2,3,3a,4,5,5a,5b,6,7,7a,8,11,11a,11b,12,13,13a,13b-octadecahydro-1H-cyclopenta[a]chrysene-3a-carboxamido)thiazole-5-carboxylic acid] | < 100 |
| C=C(C)[C@@H]1CC[C@]2(C(=O)NCCN(C)CCOC(=O)CCC(=O)O)CC[C@]3(C)[C@H](CC[C@@H]4[C@@]5(C)CC=C(c6ccc(C(=O)O)cc6)C(C)(C)[C@@H]5CC[C@]43C)[C@@H]12 [Example 115, 4-((1R,3aS,5aR,5bR,7aR,11aS,11bR,13aR,13bR)-3a-(2-((2-(3-carboxypropanoyloxy)ethyl)(methyl)amino)ethylcarbamoyl)-5a,5b,8,8,11a-pentamethyl-1-(prop-1-en-2-yl)-2,3,3a,4,5,5a,5b,6,7,7a,8,11,11a,11b,12,13,13a,13b-octadecahydro-1H-cyclopenta[a]chrysen-9-yl)benzoic acid] | < 100 |
| C=C(C)[C@@H]1CC[C@]2(C(=O)NCCN(CC(=O)O)c3ccccc3)CC[C@]3(C)[C@H](CC[C@@H]4[C@@]5(C)CC=C(c6ccc(C(=O)O)cc6)C(C)(C)[C@@H]5CC[C@]43C)[C@@H]12 [Example 111, 4-((1R,3aS,5aR,5bR,7aR,11aS,11bR,13aR,13bR)-3a-(2-((carboxymethyl)(phenyl)amino)ethylcarbamoyl)-5a,5b,8,8,11a-pentamethyl-1-(prop-1-en-2-yl)-2,3,3a,4,5,5a,5b,6,7,7a,8,11,11a,11b,12,13,13a,13b-octadecahydro-1H-cyclopenta[a]chrysen-9-yl)benzoic acid] | < 100 |
| C=C(C)[C@@H]1CC[C@]2(C(=O)NCCCN3CCCC3=O)CC[C@]3(C)[C@H](CC[C@@H]4[C@@]5(C)CC=C(c6ccc(C(=O)O)cc6)C(C)(C)[C@@H]5CC[C@]43C)[C@@H]12 [Example 87, 4-((1R,3aS,5aR,5bR,7aR,11aS,11bR,13aR,13bR)-5a,5b,8,8,11a-pentamethyl-3a-(3-(2-oxopyrrolidin-1-yl)propylcarbamoyl)-1-(prop-1-en-2-yl)-2,3,3a,4,5,5a,5b,6,7,7a,8,11,11a,11b,12,13,13a,13b-octadecahydro-1H-cyclopenta[a]chrysen-9-yl)benzoic acid] | < 100 |
| C=C(C)[C@@H]1CC[C@]2(C(=O)NCCN(C)C(C)=O)CC[C@]3(C)[C@H](CC[C@@H]4[C@@]5(C)CC=C(c6ccc(C(=O)O)cc6)C(C)(C)[C@@H]5CC[C@]43C)[C@@H]12 [Example 75, 4-((1R,3aS,5aR,5bR,7aR,11aS,11bR,13aR,13bR)-5a,5b,8,8,11a-pentamethyl-3a-(2-(N-methylacetamido)ethylcarbamoyl)-1-(prop-1-en-2-yl)-2,3,3a,4,5,5a,5b,6,7,7a,8,11,11a,11b,12,13,13a,13b-octadecahydro-1H-cyclopenta[a]chrysen-9-yl)benzoic acid] | < 100 |
| C=C(C)[C@@H]1CC[C@]2(C(=O)NCCN(C)C)CC[C@]3(C)[C@H](CC[C@@H]4[C@@]5(C)CC=C(c6ccc(C(=O)O)c(F)c6)C(C)(C)[C@@H]5CC[C@]43C)[C@@H]12 [Example 104, 4-((1R,3aS,5aR,5bR,7aR,11aS,11bR,13aR,13bR)-3a-(2-(dimethylamino)ethylcarbamoyl)-5a,5b,8,8,11a-pentamethyl-1-(prop-1-en-2-yl)-2,3,3a,4,5,5a,5b,6,7,7a,8,11,11a,11b,12,13,13a,13b-octadecahydro-1H-cyclopenta[a]chrysen-9-yl)-2-fluorobenzoic acid] | < 100 |
